Reference: patent US12691151B2, “Methods and compositions for improving oncolytic virus infection for nonpermissive cancers” (Arizona Board of Regents on behalf of Arizona State …, priority 2019, dated 2026)
“Also recorded” adds a separate entry of the source.

Legend:
Format in all cases: cell-based, human
HT29 cells [1] = tested on: HT29 cells
PANC-1 cells [2] = tested on: PANC-1 cells
A549 cell line = assay: MYXV replication in the permissive A549 cell line
HT29 cells [3] = tested on: HT29 cells; remark: listed apart in the source
MDA-MB-435 cells [4] = tested on: MDA-MB-435 cells
PANC-1 cells [5] = tested on: PANC-1 cells; remark: listed apart in the source
PANC-1 cells [6] = tested on: PANC-1 cells; remark: listed apart in the source
MDA-MB-435 cells [7] = tested on: MDA-MB-435 cells; remark: listed apart in the source

## CCC(=C/[C@H](C)C/C=C/C(C)=C/[C@@H](C)C(=O)[C@@H](C)[C@H](O)[C@@H](C)C/C(C)=C/C(=O)O)/C=C/[C@@H]1OC(=O)C=C[C@@H]1C [Leptomycin B]
HT29 cells [1]
  GFP (early/late) and TdTomato (late) expression: enhanced MYXV early (GFP) and late (TdTomato) gene expression levels
  formation of foci: allowed formation of small foci
PANC-1 cells [2]
  viral replication (virus titer): enhanced MYXV gene expression and replication
A549 cell line
  viral replication: only increased viral replication at an MOI of 0.1 or lower
HT29 cells [3]
  viral replication (virus titer): enhanced viral replication; also recorded: enhanced MYXV replication
MDA-MB-435 cells [4]
  viral replication (virus titer): enhanced MYXV gene expression and replication
PANC-1 cells [5]
  cell viability (ATP), Leptomycin B pretreatment plus MYXV: further reduced the viability; also recorded: reduced cell viability
PANC-1 cells [5]; 40 h
  cell viability (ATP): sensitive to Leptomycin B treatment alone
PANC-1 cells [6]
  GFP (early/late) and TdTomato (late) expression: enhanced GFP (early/late) and TdTomato (late) expression; also recorded: enhanced MYXV gene expression
  formation of foci: allowed formation of small foci
MDA-MB-435 cells [7]
  GFP (early/late) and TdTomato (late) expression: enhanced GFP (early/late) and TdTomato (late) expression; also recorded: enhanced MYXV gene expression
  formation of foci: allowed formation of small foci
